Laboratory results from the NIST ThermoML archive (doi:10.1021/je049609w).
Numbers after ± are expanded uncertainties.

What was measured:
[1] = refractive index (Na D-line) (dimensionless); xn = mol fraction of the nth substance listed; conditions: 101 kPa, Liquid, x2 = 0
[2] = xn = mol fraction of the nth substance listed; conditions: 101 kPa, Liquid, x2 = 0
[3] = refractive index (Na D-line) (dimensionless); conditions: 101.33 kPa, Liquid
[4] = 101 kPa, Liquid

refractive index ([1]; 298.15 K)	refractive index ([1]; 303.15 K)	refractive index ([1]; 308.15 K)	mass density ([2]; 298.15 K)	speed of sound ([2]; 298.15 K)	viscosity ([2]; 298.15 K)	mass density ([2]; 303.15 K)	viscosity ([2]; 303.15 K)	mass density ([2]; 308.15 K)	viscosity ([2]; 308.15 K)	refractive index ([3]; 298.15 K)	refractive index ([3]; 303.15 K)	refractive index ([3]; 308.15 K)	mass density ([4]; 298.15 K)	speed of sound ([4]; 298.15 K)	viscosity ([4]; 298.15 K)	mass density ([4]; 303.15 K)	viscosity ([4]; 303.15 K)	mass density ([4]; 308.15 K)	viscosity ([4]; 308.15 K)	Structure (SMILES)
1.3713 ± 0.0024	1.3673 ± 0.0024	1.3631 ± 0.0024	894.2 ± 1.2 kg/m3	1155 ± 7 m/s	0.438 ± 0.016 mPa·s	887.9 ± 1.2 kg/m3	0.414 ± 0.016 mPa·s	881.6 ± 1.3 kg/m3	0.392 ± 0.015 mPa·s											CCOC(C)=O [ethyl acetate] + C1COCCO1
										1.3983 ± 0.0024	1.3955 ± 0.0024	1.3937 ± 0.0024	805.8 ± 1 kg/m3	1237 ± 7 m/s	2.564 ± 0.076 mPa·s	802 ± 1.1 kg/m3	2.245 ± 0.067 mPa·s	798 ± 1.1 kg/m3	1.981 ± 0.06 mPa·s	CCCCO [butan-1-ol]
1.3983 ± 0.0024	1.3955 ± 0.0024	1.3937 ± 0.0024	805.8 ± 1 kg/m3	1237 ± 7 m/s	2.564 ± 0.076 mPa·s	802 ± 1.1 kg/m3	2.245 ± 0.067 mPa·s	798 ± 1.1 kg/m3	1.981 ± 0.06 mPa·s											CCCCO [butan-1-ol] + C1COCCO1
